# Tests used:
# [1] = given along with vortioxetine (Fig. 4)
# [2] = cited from earlier work
# [3] = cocktail with vortioxetine (Fig. 4)
SMILES,effect of vortioxetine on the pharmacokinetics of the co-administered drug [1],other results
CC(=O)Oc1ccccc1C(=O)O [aspirin],No effect,–
Cn1c(=O)c2c(ncn2C)n(C)c1=O [caffeine],No effect,–
COc1ccc2c(c1)[C@]13CCCC[C@@H]1[C@H](C2)N(C)CC3 [dextromethorphan],–,"AUC(0–inf), 90% CI lower limit (with vs without vortioxetine) [2, 3]: 58%; C max, 90% CI lower limit (with vs without vortioxetine) [2, 3]: 68%"
CN1C(=O)CN=C(c2ccccc2)c2cc(Cl)ccc21 [diazepam],No effect,–
CCO [ethanol],No effect,–
C#C[C@]1(O)CC[C@H]2[C@@H]3CCc4cc(O)ccc4[C@H]3CC[C@@]21C [ethinyl estradiol],No effect,–
C#C[C@]1(O)CC[C@H]2[C@@H]3CCC4=CC(=O)CC[C@@H]4[C@H]3CC[C@@]21CC [levonorgestrel],No effect,–
O=C([O-])[O-].[Li+].[Li+] [lithium],No effect,–
Cc1ncc2n1-c1ccc(Cl)cc1C(c1ccccc1F)=NC2 [midazolam],No effect,–
COc1ccc2[nH]c([S+]([O-])Cc3ncc(C)c(OC)c3C)nc2c1 (stereo not shown) [omeprazole],no apparent effect,"C max, upper limit of the 90% CI (with vs without vortioxetine) ([2]; multiple doses of vortioxetine (Fig. 4)): 130%; 90% CI for AUC(0–inf) (with vs without vortioxetine) ([2]; multiple doses of vortioxetine, within limits): 80–125%"
